This is an account of results in patent publication US10053484B2, “Heterocycle-substituted xanthene dyes” (Biotium, Inc., priority 2009, dated 2018).

“Also recorded” adds a separate entry of the source.

Data set [1] can be described thus: Measurement of absorption and emission spectra of free dyes or dye-protein conjugates. Type of data set: physicochemical. Particulars: for Absorption Wavelengths / Emission Wavelengths: in PBS. As to the method: The absorption spectra of free dyes or dye-antibody conjugates were measured on Beckman Coulter DU800 in pH 7.4 PBS. The concentrations of the dyes or conjugates were adjusted so that the maximal absorbance was around 1.0. The fluorescence emission spectra of the free dyes and conjugates were measured on a Hitachi F4500.

A short description of data set [2]: Photostability comparison of dye-antibody conjugates on stained fixed Jurkat cells (microscopy, Cy5 filter set). Particulars: for photostability: goat anti-mouse IgG conjugates on fixed Jurkat cells, continuous illumination, relative fluorescence vs. time (FIG. 5). Type of data set: physicochemical. As to the method:
Jurkat cells were fixed and stained with intracellular mouse anti-human CD3 primary antibody (0.375 ug) followed by 1 ug of goat-anti-mouse IgG conjugated to AlexaFluor633 (DOL 2.3), compound No. 6 (DOL 2.3), DyLight649 (DOL˜6), or Alexa Fluor 647 (DOL˜6). The DOL for each conjugate was the optimal value for each dye. Images were taken on an Olympus mercury arc lamp microscope using a Cy5 filter set. The relative fluorescence vs. time for each sample was plotted (FIG. 5). Traditionally, sulfonated cyanine dyes, such as Alexa Fluor 647 and DyLight 647, have been used for the 633 nm excitation by the HeNe laser with red emission. More recently, rhodamine-based Alexa Fluor 633 dye has become commercially available.

The nature of data set [3]: Measurement of absorption and emission spectra of free dyes or dye-protein conjugates. Conditions: in MeOH. Type of data set: physicochemical.
In data set [4] the test system is Jurkat cells. As to the kind of experiment: Mitochondrial staining as a function of membrane potential (flow cytometry, with/without CCCP). Type of data set: cell-based. Particulars: 50 nM dye with and without 50 uM CCCP, 30 minutes, FL4 channel (FIG. 10). The method, then: Live Jurkat cells were stained with 50 nM Compound No. 16 with and without 50 uM carbonyl cyanide m-chlorophenyl hydrozone (CCCP) for 30 minutes prior to analysis by flow cytometry on the FL4 channel of a BD FACS Calibur. Treatment with CCCP disrupts the mitochondrial membrane potential. The graph depicts the relative geometric mean fluorescence of the stained population treated without (Control) or with 50 uM CCCP. […] The membrane potential-dependent mitochondrial staining by compound No. 16 makes the dye useful for assessing the health of cells as only healthy cells have functional mitochondria and have normal membrane potential. For example, cells undergoing apoptosis are known to lose membrane potential.

Data set [5] deals with HeLa cells. Description: Mitochondrial staining of live HeLa cells. Type of data set: cell-based. Particulars: 200 nM compound No. 16 or 10 uM compound No. 74, DMEM, 30 minutes, 37° C. (FIG. 9). As to the method: HeLa cells were cultured for 2 days at 37° C., 5% CO2. Live cells were stained with 200 nM compound No. 16 or 10 uM compound No. 74 in DMEM media for 30 minutes at 37° C., 5% CO2. Cells were washed in fresh medium and cells were viewed on a mercury arc lamp microscope using a Cy5 filter set. Images were taken using a CCD camera and Image Pro Express software.

For data set [6] the following is noted: cited from earlier work; for absorption wavelength: commercial cyanine dyes used for the 633 nm laser.
[7] abbreviates: known xanthene dyes, background.

As to `CC1N=c2c(cc3c(c2S(=O)(=O)O)Oc2c(cc4c(c2S(=O)(=O)O)NC(C)C4(C)C)C=3c2nccn2CCCCCC(=O)ON2C(=O)CCC2=O)C1(C)C` (centres unmarked) [Compound No. 1], in data set [1], the “Absorption Wavelengths” value was 548 nm and the “Emission Wavelengths” value is reported as 571 nm.
For `CC1CC(C)(C)Nc2c1cc1c(c2S(=O)(=O)O)Oc2c(S(=O)(=O)O)c3c(cc2=C1c1nccn1CCCCCC(=O)ON1C(=O)CCC1=O)C(C)CC(C)(C)N=3` (centres unmarked) [Compound No. 2], in data set [1], the “Absorption Wavelengths” value was 559 nm and the “Emission Wavelengths” value was 579 nm.
Taken in the same sequence, the figures for `CC1CC(C)(C)Nc2c1cc1c(c2S(=O)(=O)O)Oc2c(S(=O)(=O)O)c3c(cc2=C1c1[nH]cnc1C(=O)O)C(C)CC(C)(C)N=3` (centres unmarked) [Compound No. 3] were 529 nm and 548 nm.
Taken in the same sequence, the figures for `CC1(C)C=C(CS(=O)(=O)O)c2cc3c(cc2=N1)Oc1cc2c(cc1C=3c1nccn1CCCCCC(=O)ON1C(=O)CCC1=O)C(CS(=O)(=O)O)=CC(C)(C)N2` [Compound No. 4] were 603 nm and 626 nm.
Taken in the same sequence, the figures for `CCN1c2cc3c(cc2C(CS(=O)(=O)[O-])=CC1(C)C)C(c1nccn1CCCCCC(=O)ON1C(=O)CCC1=O)=c1cc2c(cc1O3)=[N+](CC)C(C)(C)C=C2CS(=O)(=O)O` [Compound No. 5] were 622 nm and 649 nm.
In the case of `CCN1c2cc3c(cc2C(CS(=O)(=O)O)=CC1(C)C)C(c1nccn1CCCCCC(=O)NCCOCCOCCOCCOCCOCCOCCOCCOCCOCCOCCOCCOC(=O)ON1C(=O)CCC1=O)=c1cc2c(cc1O3)=[N+](CC)C(C)(C)C=C2CS(=O)(=O)[O-]` [Compound No. 6], the photostability result in data set [2] is on record as “significantly more photostable than DyLight 633; also recorded: approximately similar stability to that of Alexa Fluor 633; also recorded: very photostable”. The absorption peak result in data set [1] (FIG. 1: conjugated to goat anti-mouse IgG in PBS) was “about 633 nm”. In addition, in data set [1], the “Absorption Wavelengths” value is 622 nm and the “Emission Wavelengths” value amounted to 649 nm.
`CC1(C)C=C(CS(=O)(=O)[O-])c2cc3c(c4c2N1CCC4)Oc1c2c4c(cc1=C3c1nccn1CCCCCC(=O)ON1C(=O)CCC1=O)C(CS(=O)(=O)O)=CC(C)(C)[N+]=4CCC2` [Compound No. 7]: in data set [1], the “Absorption Wavelengths” value is listed as 638 nm and the “Emission Wavelengths” value is recorded as 660 nm.
In the same order, the values of `CCN1c2cc3c(cc2C(C)=CC1(C)C)C(c1nccn1Cc1ccc(CCl)cc1)=c1cc2c(cc1O3)=[N+](CC)C(C)(C)C=C2C.[Cl-]` [Compound No. 9] are 622 nm and 648 nm.
Regarding `CCN1c2cc3c(cc2C(C)=CC1(C)C)C(c1nccn1C)=c1cc2c(cc1O3)=[N+](CC)C(C)(C)C=C2C` [Compound No. 16], in data set [3], the “Absorption Wavelengths” value amounted to 622 nm and the “Emission Wavelengths” value was 648 nm. For the same compound, in data set [4], the “membrane potential dependence of mitochondrial staining” value is “stains mitochondria in a membrane potential-dependent fashion; also recorded: sensitive to disruption of the mitochondrial membrane potential”. Further, the “localization of dye in live cells” value in data set [5] is on record as “concentrated in the mitochondria”.
In the case of `CC1CC(C)(C)Nc2c1cc1c(c2S(=O)(=O)[O-])Oc2c(S(=O)(=O)O)c3c(cc2=C1c1n(CCCCCC(=O)ON2C(=O)CCC2=O)cc[n+]1C)C(C)CC(C)(C)N=3` (centres unmarked) [Compound No. 29], in data set [1], the “Absorption Wavelengths” value came to 592 nm and the “Emission Wavelengths” value amounted to 615 nm.
Turning to `CCN1c2cc3c(cc2C(C)=CC1(C)C)C(c1nc2ccccc2n1C)=c1cc2c(cc1O3)=[N+](CC)C(C)(C)C=C2C.[Cl-]` [Compound No. 70], in data set [3], the “Absorption Wavelengths” value is recorded as 628 nm and the “Emission Wavelengths” value came out at 656 nm.
`CCN1c2cc3c(cc2C(C)=CC1(C)C)C(c1n(C)cc[n+]1C)=c1cc2c(cc1O3)=[N+](CC)C(C)(C)C=C2C` [Compound No. 74]: in data set [3], the “Absorption Wavelengths” value is given as 660 nm and the “Emission Wavelengths” value stood at 688 nm. In data set [5], the “localization of dye in live cells” value is listed as “concentrated in the mitochondria”.
For the compound `CC1(C)C=C(CS(=O)(=O)[O-])c2cc3c(c4c2N1CCC4)Oc1c2c4c(cc1=C3c1n(CCCCCC(=O)ON3C(=O)CCC3=O)cc[n+]1CCCS(=O)(=O)O)C(CS(=O)(=O)[O-])=CC(C)(C)[N+]=4CCC2` [Compound No. 75], in data set [1], the “Absorption Wavelengths” value was found to be 680 nm and the “Emission Wavelengths” value is given as 701 nm.
`CCN1/C(=C/C=C/C=C/C2=[N+](CCCCCC(=O)O)c3ccc(S(=O)(=O)O)cc3C2(C)C)C(C)(C)c2cc(S(=O)(=O)[O-])ccc21` [Cy5]: the absorption wavelength in data set [6] is reported as about 650 nm.
For the compound `CCN1c2cc3c(cc2C(CS(=O)(=O)[O-])=CC1(C)C)C(c1nccn1CCCCCC(=O)ON1C(=O)CCC1=O)=c1cc2c(cc1O3)=[N+](CCCS(=O)(=O)O)C(C)(C)C=C2CS(=O)(=O)O` [compound 10], in data set [1], the “Absorption Wavelengths” value is listed as 622 nm and the “Emission Wavelengths” value is given as 649 nm.
Taken in the same sequence, the figures for `N=c1ccc2c(-c3[nH]cnc3C(=O)O)c3ccc(N)cc3oc-2c1` [compound 21] were 485 nm and 508 nm.
Taken in the same sequence, the figures for `CCN1c2cc3c(cc2C(C)=CC1(C)C)C(c1ccncc1C(=O)[O-])=c1cc2c(cc1O3)=[N+](CCCCCC(=O)O)C(C)(C)C=C2C` [compound 23] were 599 nm and about 620 nm.
Turning to `CC1(C)C=C(CS(=O)(=O)O)c2cc3c(cc2=N1)Oc1cc2c(cc1C=3c1n(CCCCCC(=O)ON3C(=O)CCC3=O)cc[n+]1CCCS(=O)(=O)O)C(CS(=O)(=O)[O-])=CC(C)(C)N2` [compound 71], in data set [1], the “Absorption Wavelengths” value turned out to be 642 nm and the “Emission Wavelengths” value was 662 nm.
On to `CCN1c2cc3c(cc2C(CS(=O)(=O)[O-])=CC1(C)C)C(c1n(CC(=O)N2CCC(C(=O)ON4C(=O)CCC4=O)CC2)cc[n+]1CCCS(=O)(=O)O)=c1cc2c(cc1O3)=[N+](CC)C(C)(C)C=C2CS(=O)(=O)[O-]` [compound 72], for which, in data set [1], the “Absorption Wavelengths” value is recorded as 660 nm and the “Emission Wavelengths” value is listed as 681 nm.
With `CC1CC(C)(C)Nc2c1cc1c(c2S(=O)(=O)[O-])Oc2c(S(=O)(=O)O)c3c(cc2=C1c1n(CCCCCC(=O)ON2C(=O)CCC2=O)cc[n+]1CCCS(=O)(=O)O)C(C)CC(C)(C)N=3` (centres unmarked) [compound 76], in data set [1], the “Absorption Wavelengths” value worked out at 593 nm and the “Emission Wavelengths” value turned out to be 614 nm.
For `C/N=c1\cc2oc3cc(NC)c(S(=O)(=O)O)cc3c(-c3nccn3CCCCCC(=O)O)c-2cc1S(=O)(=O)O` [compound 77], the “Absorption Wavelengths” value in data set [1] stood at 578 nm⁻¹.
Turning to `O=C(O)CCCCCn1ccnc1-c1c2cc/c(=N/CC(F)(F)F)cc-2oc2cc(NCC(F)(F)F)ccc12` [compound 84], in data set [1], the “Absorption Wavelengths” value turned out to be 533 nm and the “Emission Wavelengths” value came out at 550 nm.
In the same order, the values of `CCN1c2cc3c(cc2C(C)=CC1(C)C)C(c1nccs1)=c1cc2c(cc1O3)=[N+](CC)C(C)(C)C=C2C` [compound 85] are 627 nm and 698 nm.
As to `CCN1c2cc3c(cc2C(C)=CC1(C)C)C(c1cocn1)=c1cc2c(cc1O3)=[N+](CC)C(C)(C)C=C2C` [compound 87], in data set [1], the “Absorption Wavelengths” value was found to be 647 nm and the “Emission Wavelengths” value is recorded as 676 nm.
As to Alexa Fluor 647 [reference compound], the “time to being essentially totally bleached” value in data set [2] (goat anti-mouse IgG conjugates on fixed Jurkat cells (FIG. 5)) is given as “about 1 minute”. In data set [2], the photostability result is recorded as “poor photostability”. In addition, the absorption wavelength in data set [6] is given as about 650 nm.
For carboxy-rhodamine 110, in data set [6] (setting [7]), the absorption maxima was 502 nm and the emission maxima is 524 nm.
